{
  "source": "paper PMC10178127",
  "about": "“Immunomodulatory Effects of the Pea Defensin Psd1 in the Caco-2/Immune Cells Co-Culture upon Candida albicans Infection” (International Journal of Molecular Sciences, 2023)",
  "key": {"CD14+ blood monocytes": {"tested_on": "CD14+ blood monocytes", "assay": "Multiplex xMAP cytokine production, direct stimulation of monocytes", "format": "cell-based, human", "settings": "24 h", "description": "Primary peripheral blood mononuclear cells (PBMCs) collected from healthy donors were purchased from American Type Culture Collection (ATCC PCS-800-011). Primary CD14^+ blood monocytes were isolated from PBMCs by adherence according to standard technique. Monocyte-derived mature dendritic cells (moDCs) were obtained from CD14^+ blood monocytes according to the previously reported protocol. Briefly, blood monocytes were incubated in a complete RPMI-1640 medium (Capricorn Scientific, Ebsdorfergrund, Germany), containing 10% fetal bovine serum (FBS, Capricorn Scientific, Ebsdorfergrund, Germany), 1× antibiotic-antimycotic solution (Invitrogen, Waltham, MA, USA), 800 U/mL rhGM-CSF (Sci-Store, Moscow, Russia) and 500 U/mL rhIL-4 (Sci-Store) for 3 days in CellXpert C170i CO2-incubator (Eppendorf, Hamburg, Germany). Fresh complete RPMI-1640 medium with rhGM-CSF and rhIL-4 was added to the culture on day 3. On day 5, fresh complete RPMI-1640 containing 100 U/mL rhTNF-α (Sigma-Aldrich, St. Louis, MO, USA) as well as 800 U/mL rhGM-CSF and 500 U/mL rhIL-4 was added and the culture was incubated for another 4 days until full maturation.\nMonocytes and moDCs were seeded into the wells of 48- and 24-well plates in the complete RPMI-1640 medium supplemented with 10% human AB serum (HABS, Capricorn Scientific) without antibiotics 24 h prior to the experiment, and kept in a humidified CO2-incubator (5% CO2, 37 °C). After 24 h, the medium in the wells of the 48-well plate was replaced by fresh complete RPMI-1640 medium with 10% HABS, supplemented with 2 µM of Psd1 for the sample wells or fresh medium alone for the control wells. Medium in the wells of the 24-well plate was replaced by fresh complete RPMI-1640 medium with 10% human serum without antibiotics. Then, Millicell inserts with Caco-2 monolayers with TEER > 400 Ωcm^2 were placed into the wells of the 24-well plate, containing monocytes or moDCs. Wells with Millicell inserts with Caco-2 monolayers without immune cells were used as control wells. Medium in apical chambers of Millicell inserts was replaced by fresh complete RPMI-1640 with 10% human serum medium containing Psd1 at the final concentration of 2 µM or Candida albicans at the concentration of 5 × 10^4 cells/mL or yeast cells together with the pea defensin at the same concentration. Fresh complete RPMI-1640 medium only with 10% human serum and without antibiotics was used in control wells. Plates were kept in CO2-incubator (5% CO2, 37 °C) for another 24 h. Culture supernatants from the wells of the 48-well plate and basolateral chambers of the 24-well plate were collected and stored at −70 °C degrees less than one month prior to the analytes assessment.\nThe following 48 analytes were measured at a protein level by multiplex xMAP technology using the MILLIPLEX Human Cytokine/Chemokine/Growth Factor Panel A kit (HCYTA-60K-PX48, Merck, Darmstadt, Germany): sCD40L, EGF, Eotaxin-1/CCL11, FGF-2/FGF-basic, Flt-3 ligand, Fractalkine/CX3CL1, G-CSF, GM-CSF, GROα/CXCL1, IFNα2, IFNγ, IL-1α, IL-1β, IL-1RA, IL-2, IL-3, IL-4, IL-5, IL-6, IL-7, IL-8/CXCL8, IL-9, IL-10, IL-12(p40), IL-12(p70), IL-13, IL-15, IL-17A/CTLA8, IL-17E/IL-25, IL-17F, IL-18, IL-22, IL-27, IP-10/CXCL10, MCP-1/CCL2, MCP-3/CCL7, M-CSF, MDC/CCL22, MIG/CXCL9, MIP-1α/CCL3, MIP-1β/CCL4, PDGF-AA, PDGF-AB/BB, RANTES/CCL5, TGFα, TNFα, TNFβ, and VEGF-A. Multiplex-based assay read-out was performed using the MAGPIX system (Merck) with the xPONENT 4.2 software (Merck) in accordance with the manufacturer’s instruction with overnight incubation of the samples with primary antibodies. A final analysis was carried out with the MILLIPLEX Analyst v5.1 software (Merck). Measurements were performed twice for each sample. Release of the analytes in control and experimental samples was compared with an unpaired two-sample t-test using GraphPad Prism v.8.0.1 (GraphPad Software, Inc., San Diego, CA, USA). The p values ≤ 0.05 were considered significant."}, "[1]": {"tested_on": "Beas-2B human bronchial epithelial cells", "settings": "cited from earlier work", "text": "It was shown previously that pea Psd1 is not toxic for Beas-2B human bronchial epithelial cells. Here we investigated the cytotoxic action of the pea Psd1 on human immune cells by using a human peripheral blood mononuclear cells (PBMCs) fraction."}},
  "data": [
    {"substance": "Psd1: pea defensin from Pisum sativum (UNIPROT P81929), recombinant peptide overexpressed in Escherichia coli (KTCEHLADTYRGVCFTNASCDDHCKNKAHLISGTCHNWKCFCTQNC; UniProt P81929 1-46, looked up)", "values": [
      {"measurement": "EGF level", "setting": "CD14+ blood monocytes; Mono+Psd1, 2 µM, supernatant", "value": 8.15, "unit": "pg/mL"},
      {"measurement": "Eotaxin level", "setting": "CD14+ blood monocytes; Mono+Psd1, 2 µM, supernatant", "value": "<3.52↓ pg/ml"},
      {"measurement": "FGF-2 level", "setting": "CD14+ blood monocytes; Mono+Psd1, 2 µM, supernatant", "value": 41.38, "unit": "pg/mL"},
      {"measurement": "FLT-3L level", "setting": "CD14+ blood monocytes; Mono+Psd1, 2 µM, supernatant", "value": 0.65, "unit": "pg/mL"},
      {"measurement": "Fractalkine level", "setting": "CD14+ blood monocytes; Mono+Psd1, 2 µM, supernatant", "value": "<17.82↓ pg/ml"},
      {"measurement": "G-CSF level", "setting": "CD14+ blood monocytes; Mono+Psd1, 2 µM, supernatant", "value": 52.17, "unit": "pg/mL"},
      {"measurement": "GM-CSF level", "setting": "CD14+ blood monocytes; Mono+Psd1, 2 µM, supernatant", "value": 12.61, "unit": "pg/mL"},
      {"measurement": "GROa level", "setting": "CD14+ blood monocytes; Mono+Psd1, 2 µM, supernatant", "value": 1254, "unit": "pg/mL"},
      {"measurement": "IFNa2 level", "setting": "CD14+ blood monocytes; Mono+Psd1, 2 µM, supernatant", "value": 12.78, "unit": "pg/mL"},
      {"measurement": "IFNg level", "setting": "CD14+ blood monocytes; Mono+Psd1, 2 µM, supernatant", "value": "<2.23↓ pg/ml"},
      {"measurement": "IL-1RA level", "setting": "CD14+ blood monocytes; Mono+Psd1, 2 µM, supernatant", "value": 4.01, "unit": "pg/mL"},
      {"measurement": "IL-1a level", "setting": "CD14+ blood monocytes; Mono+Psd1, 2 µM, supernatant", "value": 14.17, "unit": "pg/mL"},
      {"measurement": "IL-1b level", "setting": "CD14+ blood monocytes; Mono+Psd1, 2 µM, supernatant", "value": "<2.26↓ pg/ml"},
      {"measurement": "IL-2 level", "setting": "CD14+ blood monocytes; Mono+Psd1, 2 µM, supernatant", "value": 1.12, "unit": "pg/mL"},
      {"measurement": "IL-3 level", "setting": "CD14+ blood monocytes; Mono+Psd1, 2 µM, supernatant", "value": "<0.60↓ pg/ml"},
      {"measurement": "IL-4 level", "setting": "CD14+ blood monocytes; Mono+Psd1, 2 µM, supernatant", "value": "<1.14↓ pg/ml"},
      {"measurement": "IL-5 level", "setting": "CD14+ blood monocytes; Mono+Psd1, 2 µM, supernatant", "value": "<0.30↓ pg/ml"},
      {"measurement": "IL-6 level", "setting": "CD14+ blood monocytes; Mono+Psd1, 2 µM, supernatant", "value": 478.09, "unit": "pg/mL"},
      {"measurement": "IL-7 level", "setting": "CD14+ blood monocytes; Mono+Psd1, 2 µM, supernatant", "value": "<0.38↓ pg/ml"},
      {"measurement": "IL-8 level", "setting": "CD14+ blood monocytes; Mono+Psd1, 2 µM, supernatant", "value": 6178, "unit": "pg/mL"},
      {"measurement": "IL-9 level", "setting": "CD14+ blood monocytes; Mono+Psd1, 2 µM, supernatant", "value": 3.19, "unit": "pg/mL"},
      {"measurement": "IL-10 level", "setting": "CD14+ blood monocytes; Mono+Psd1, 2 µM, supernatant", "value": 22.94, "unit": "pg/mL"},
      {"measurement": "IL-12 (p40) level", "setting": "CD14+ blood monocytes; Mono+Psd1, 2 µM, supernatant", "value": 19.24, "unit": "pg/mL"},
      {"measurement": "IL-12 (p70) level", "setting": "CD14+ blood monocytes; Mono+Psd1, 2 µM, supernatant", "value": "<1.68↓ pg/ml"},
      {"measurement": "IL-13 level", "setting": "CD14+ blood monocytes; Mono+Psd1, 2 µM, supernatant", "value": 11.06, "unit": "pg/mL"},
      {"measurement": "IL-15 level", "setting": "CD14+ blood monocytes; Mono+Psd1, 2 µM, supernatant", "value": 1.44, "unit": "pg/mL"},
      {"measurement": "IL-17A level", "setting": "CD14+ blood monocytes; Mono+Psd1, 2 µM, supernatant", "value": 3.18, "unit": "pg/mL"},
      {"measurement": "IL-17E/IL-25 level", "setting": "CD14+ blood monocytes; Mono+Psd1, 2 µM, supernatant", "value": "<18.85↓ pg/ml"},
      {"measurement": "IL-17F level", "setting": "CD14+ blood monocytes; Mono+Psd1, 2 µM, supernatant", "value": "<19.03↓ pg/ml"},
      {"measurement": "IL-18 level", "setting": "CD14+ blood monocytes; Mono+Psd1, 2 µM, supernatant", "value": 0.8, "unit": "pg/mL"},
      {"measurement": "IL-22 level", "setting": "CD14+ blood monocytes; Mono+Psd1, 2 µM, supernatant", "value": 10.35, "unit": "pg/mL"},
      {"measurement": "IL-27 level", "setting": "CD14+ blood monocytes; Mono+Psd1, 2 µM, supernatant", "value": 59.83, "unit": "pg/mL"},
      {"measurement": "IP-10 level", "setting": "CD14+ blood monocytes; Mono+Psd1, 2 µM, supernatant", "value": 165.32, "unit": "pg/mL"},
      {"measurement": "M-GSF level", "setting": "CD14+ blood monocytes; Mono+Psd1, 2 µM, supernatant", "value": 29.48, "unit": "pg/mL"},
      {"measurement": "MCP-1 level", "setting": "CD14+ blood monocytes; Mono+Psd1, 2 µM, supernatant", "value": 6617, "unit": "pg/mL"},
      {"measurement": "MCP-3 level", "setting": "CD14+ blood monocytes; Mono+Psd1, 2 µM, supernatant", "value": 371.63, "unit": "pg/mL"},
      {"measurement": "MDC level", "setting": "CD14+ blood monocytes; Mono+Psd1, 2 µM, supernatant", "value": 864.86, "unit": "pg/mL"},
      {"measurement": "MIG level", "setting": "CD14+ blood monocytes; Mono+Psd1, 2 µM, supernatant", "value": 1166, "unit": "pg/mL"},
      {"measurement": "MIP-1a level", "setting": "CD14+ blood monocytes; Mono+Psd1, 2 µM, supernatant", "value": 118.6, "unit": "pg/mL"},
      {"measurement": "MIP-1b level", "setting": "CD14+ blood monocytes; Mono+Psd1, 2 µM, supernatant", "value": 254.87, "unit": "pg/mL"},
      {"measurement": "PDGF-AA level", "setting": "CD14+ blood monocytes; Mono+Psd1, 2 µM, supernatant", "value": 26.77, "unit": "pg/mL"},
      {"measurement": "PDGF-AB/BB level", "setting": "CD14+ blood monocytes; Mono+Psd1, 2 µM, supernatant", "value": 543.88, "unit": "pg/mL"},
      {"measurement": "RANTES level", "setting": "CD14+ blood monocytes; Mono+Psd1, 2 µM, supernatant", "value": 59.35, "unit": "pg/mL"},
      {"measurement": "TGF-a level", "setting": "CD14+ blood monocytes; Mono+Psd1, 2 µM, supernatant", "value": 2.23, "unit": "pg/mL"},
      {"measurement": "TNFa level", "setting": "CD14+ blood monocytes; Mono+Psd1, 2 µM, supernatant", "value": 90.69, "unit": "pg/mL"},
      {"measurement": "TNFb level", "setting": "CD14+ blood monocytes; Mono+Psd1, 2 µM, supernatant", "value": 2.7, "unit": "pg/mL"},
      {"measurement": "VEGFa level", "setting": "CD14+ blood monocytes; Mono+Psd1, 2 µM, supernatant", "value": 4.16, "unit": "pg/mL"},
      {"measurement": "sCD40L level", "setting": "CD14+ blood monocytes; Mono+Psd1, 2 µM, supernatant", "value": 98.67, "unit": "pg/mL"},
      {"measurement": "increase in IL-12, IL-15, IL-27 and MCP-1", "setting": "CD14+ blood monocytes; monocytes, 2 μM", "value": "failed to reach statistical significance"},
      {"measurement": "production of TNFα, IL-6, IL-8, IP-10, MCP-3, and G-CSF", "setting": "CD14+ blood monocytes; monocytes, 2 μM", "value": "increased"},
      {"measurement": "toxicity for Beas-2B cells", "setting": "[1]", "value": "not toxic"}
    ]}
  ]
}
